Data: patent publication US20210363170A1, “4'-THIO-NUCLEOTIDE AND -NUCLEOSIDE PRODRUGS FOR THE TREATMENT OF CANCER” (Southern Research Institute, priority 2018, published 2021)
Read-outs that look alike come from different tables or passages of the source.

Experiments:
Type in all cases: cell-based
KG-1a cells = experiment: Cell viability assay (CellTiter Glo, 72 hours) in KG-1a cells; details: read-out: Cell Line IC50 (μM) KG-1a
Experimental: (§1) KG1a (CCL-246.1, ATCC) and CCRF-CEM (CCL-199, ATCC) cells were grown in RPMI-1640 media containing 10% FBS in T-75 flasks to a density of 1×10^6 cells per mL. Exponentially gown cells were used for the assay. Day 1: 7.5×10^3 cells were seeded in each well of 96 well plate. Day 2: Cells were treated with serial dilutions of each compound (starting 20 uM) or with DMSO as control for 72 hours. Day 5: CellTiter Glo (G9241, Promega) was added to the media of each well and measured by plate reader (Synergy 4, Biotek). Data analysis: Using GraphPad Prism 7 (GraphPad).

CCRF-CEM cells = experiment: Cell viability assay (CellTiter Glo, 72 hours) in CEM cells; details: read-out: Cell Line IC50 (μM) CEM
Experimental: as §1

DNMT-1 = experiment: Western blot analysis of DNMT-1 in CEM cells; details: DNMT-1 depletion in CEM cells, 96 hours
Experimental: Cells were treated with serial dilutions of each compound (starting 100 uM for HCT-116 and NCI-H23 cells, and 20 uM for KG-1a and CCRF-CEM cells) or with DMSO as control for 96 hours. Cell lysates were collected and proteins were separated with a SDS-PAGE gel, transferred to a nitrocellulose membrane, blocked in 5% non-fat milk in TBS-T, and probed with anti DNMT-1 (1:7000) rabbit polyclonal antibodies (cat #ab19905, Abcam) in 5% non-fat milk in TBS-T overnight. Membranes were washed three times with TBS-T. The anti-rabbit IgG (7074p2, Cell Signaling) secondary antibody was added at a concentration of 1:5000 in 5% non-fat milk in TBS-T for two hours in room temperature. Membranes were then washed three times with TBS-T, 5 minutes each time. Membranes were then incubated with SuperSignal West Pico Chemiluminescent Substrate (#34080 Thermo) and exposed onto film. Membranes were stripped with stripping buffer (#21059, Thermo) and re-probed with mouse anti tubulin 1:10,000 (T9026, Sigma) and anti-mouse IgG 1:5,000 (70′76p2, Cell Signaling).

CEM cells [1] = experiment: Nucleoside transporter (hENT-1) activity: CEM cell viability with or without the hENT-1 inhibitor dipyridamole; details: for IC50: CEM cells, 72 hours
Experimental: 7.5×10^3 cells/well were plated in a 96 well plate in duplicate. Either compound 2 and Aza-T-dCyd were dosed at a 1:5 10-point serial dilution with a top dose of 5 μM in the presence of 5 μM Dipyridamole (DPD, Sigma Cat #: D9766 CAS 58-32-2), a hENT-1 inhibitor. Cells were cultured in the presence of compound for 72 hours. CellTiter Glo (G9241, Promega) was added to the media of each well and measured by a plate reader (Synergy 4, Biotek). The results were analyzed by GraphPad Prism 7 (GraphPad).

HCT-116 cells = experiment: Cytidine deaminase (CDA) activity: HCT-116 cell viability with or without the CDA inhibitor tetrahydrouridine; details: for IC50: HCT-116 cells, 72 hours
Experimental: […] cells/well were plated in a 96 well plate in duplicate. Tetrahydrouridine (THU), a Cytidine Deaminase inhibitor was dosed at 1:5 10-point serial dilution, with a top dose of 100 μM, as a control. […] Cells were cultured in the presence of compound for 72 hours and then assayed by cell titer glow for viability.

CEM cells [2] = experiment: Deoxycytidine kinase (dCK) activity: CEM cell viability with or without 2'-deoxycytidine; details: for IC50: CEM cells, 72 hours
Experimental: 7.5×10^3 cells/well were plated in a 96 well plate in duplicate. […] Cells were cultured in the presence of compound for 72 hours. CellTiter Glo (G9241, Promega) was added to the media of each well and measured by a plate reader (Synergy 4, Biotek). The results were analyzed by GraphPad Prism 7 (GraphPad).

Row | IC50 (CCRF-CEM cells; Homo sapiens, CCRF-CEM) [µM] | IC50 (HCT-116 cells; Homo sapiens, with 20 μM tetrahydrouridine (CDA inhibitor), read-out: HCT-116 IC50 (μM) With THU (20 μM)) [µM] | IC50 (HCT-116 cells; Homo sapiens, without tetrahydrouridine, read-out: HCT-116 IC50 (μM) Without THU) [µM] | Molecule | IC50 (KG-1a cells) [µM] | IC50 (CCRF-CEM cells) [µM] | IC50 (DNMT-1) [nM] | IC50 (CEM cells [1]; with 5 μM dipyridamole (hENT-1 inhibitor), read-out: CEM IC50 (μM) With DPD (5 μM)) [µM] | IC50 (CEM cells [1]; without dipyridamole, read-out: CEM IC50 (μM) Without DPD) [µM] | reliance on hENT-1 to enter the cancer cells (CEM cells [1]; conclusion in words from Table 3) | IC50 (HCT-116 cells; with 20 μM tetrahydrouridine (CDA inhibitor), read-out: HCT-116 IC50 (μM) With THU (20 μM)) [µM] | IC50 (HCT-116 cells; without tetrahydrouridine, read-out: HCT-116 IC50 (μM) Without THU) [µM] | overcoming cytidine deaminase compared to parent drug (HCT-116 cells; conclusion in words from Table 4) | IC50 (CEM cells [2]; with 20 μM 2'-deoxycytidine (dCK inhibitor), read-out: CEM IC50 (μM) With dCyd (20 μM)) [µM] | IC50 (CEM cells [2]; without 2'-deoxycytidine, read-out: CEM IC50 (μM) Without dCyd) [µM] | reliance on dCK activation compared to parent drug (CEM cells [2]; conclusion in words from Table 5) | IC50 (KG-1a cells; Homo sapiens) [µM] | IC50 (CEM cells [1]; Homo sapiens, CCRF-CEM, with 5 μM dipyridamole (hENT-1 inhibitor), read-out: CEM IC50 (μM) With DPD (5 μM)) [µM] | IC50 (CEM cells [1]; Homo sapiens, CCRF-CEM, without dipyridamole, read-out: CEM IC50 (μM) Without DPD) [µM] | IC50 (CEM cells [2]; Homo sapiens, CCRF-CEM, with 20 μM 2'-deoxycytidine (dCK inhibitor), read-out: CEM IC50 (μM) With dCyd (20 μM)) [µM] | IC50 (CEM cells [2]; Homo sapiens, CCRF-CEM, without 2'-deoxycytidine, read-out: CEM IC50 (μM) Without dCyd) [µM]
1 |  |  |  | 2-ethylbutyl ((S)-(((2R,3S,5R)-5-(4-amino-2-oxo-1,3,5-triazin-1(2H)-yl)-3-hydroxytetrahydrothiophen-2-yl)methoxy)(phenoxy)phosphoryl)-L-alaninate [Compound 3] | 1.5 | 0.16 | 620 | 3.1 | 0.35 | does not significantly rely on hENT-1 | 12 | 8 | did overcome CAD | 6.5 | 0.3 | does not rely on dCK activation |  |  |  |  | 
2 | 0.03 | 0.7 | 7 | Nc1ncn([C@H]2C[C@H](O)[C@@H](CO)S2)c(=O)n1 [Aza-T-dCyd, 5-aza-4′-Thio-2′-deoxycytidine, reference compound] |  |  | 380 |  |  |  |  |  |  |  |  |  | 0.03 | > 3 | 0.03 | 19 | 0.03
